Assay results as given in ChEMBL document CHEMBL1201862, “PubChem BioAssay data set” (2004).
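A five-concentration, 48-hour dose response in 96-well plates underlies each endpoint, interpolated linearly between surrounding concentrations. The concentration for 50% growth inhibition is given as GI50.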 Calls of active or inactive are those of the source. Cut-off read from the data, not from the text of the source: active = GI50 up to about 1.1 µM and inactive = higher.

Columns and labels:
Experiment in all cases: NCI anticancer screen, dose series, 48 h
[1] = system: NCI-H460
[2] = system: HCT-15
[3] = system: M14
[4] = system: SNB-75
[5] = system: U-251
[6] = system: Malme-3M
[7] = system: UO-31
[8] = system: EKVX
[9] = system: OVCAR-8
[10] = system: OVCAR-5
[11] = system: SF-295
[12] = system: OVCAR-3
[13] = system: 786-0
[14] = system: NCI-H23
[15] = system: MOLT-4
[16] = system: DMS-273
[17] = system: NCI-H226
[18] = system: SN12C
[19] = system: COLO 205
[20] = system: DMS-114
[21] = system: LOX IMVI
[22] = system: DLD-1
[23] = system: OVCAR-4
[24] = system: SK-MEL-5
[25] = system: A549
[26] = system: K562
[27] = system: SK-OV-3
[28] = system: HCC 2998
[29] = system: M19-MEL
[30] = system: UACC-62
[31] = system: CAKI-1
[32] = system: SF-539
[33] = system: HT-29
[34] = system: CCRF-CEM
[35] = system: SNB-19
[36] = system: HCT-116
[37] = system: LXFL 529
[38] = system: SR
[39] = system: SK-MEL-28
[40] = system: SF-268
[41] = system: ACHN
[42] = system: KM-20L2
[43] = system: SK-MEL-2
[44] = system: NCI-H522
[45] = system: KM12
[46] = system: RPMI-8226
[47] = system: HOP-62
[48] = system: SW-620
[49] = system: UACC-257
[50] = system: BT-549
[51] = system: HL-60
[52] = system: MDA-N
[53] = system: TK-10
[54] = system: NCI/ADR-RES
[55] = system: A498
[56] = system: IGROV-1
[57] = system: MDA-MB-231
[58] = system: T47D
[59] = system: DU-145
[60] = system: RXF 393
[61] = system: Hs-578T
[62] = system: HOP-92
[63] = system: MCF7
[64] = system: MDA-MB-435
[65] = system: PC-3

Measured: GI50

O=c1[nH]c(=O)n(C2CC(O)C(CO)O2)cc1C#Cc1c(F)c(F)c(F)c(F)c1F (configuration not stated)
> 100 µM: [2]
inactive: [1] > 100 µM | [3] > 100 µM | [4] > 100 µM | [5] > 100 µM | [6] > 100 µM | [7] > 100 µM | [8] > 100 µM | [9] > 100 µM | [10] > 100 µM | [11] > 100 µM | [12] > 100 µM | [13] > 100 µM | [14] > 100 µM | [15] > 100 µM | [16] > 100 µM | [17] > 100 µM | [18] > 100 µM | [19] > 100 µM | [20] > 100 µM | [21] > 100 µM | [22] > 100 µM | [23] > 100 µM | [24] > 100 µM | [25] > 100 µM | [26] > 100 µM | [27] > 100 µM | [28] > 100 µM | [29] > 100 µM | [30] > 100 µM | [31] > 100 µM | [32] > 100 µM | [33] > 100 µM | [34] > 100 µM | [35] > 100 µM | [36] > 100 µM | [37] > 100 µM | [38] > 100 µM | [39] > 100 µM | [40] > 100 µM | [41] > 100 µM | [42] > 100 µM | [43] > 100 µM | [44] > 10 µM | [45] > 100 µM | [46] > 100 µM | [47] > 100 µM | [48] > 100 µM | [49] > 100 µM

CN(C)c1ccc2cc3ccc(N(C)C)cc3nc2c1 [ACRIDINE ORANGE]
0.467 µM: [2]
inactive: [50] 6.78 µM | [3] 3.05 µM | [52] 1.19 µM | [4] 2.1 µM | [53] 2.86 µM | [5] 1.24 µM | [6] 3.86 µM | [8] 1.87 µM | [9] 1.56 µM | [10] 2.75 µM | [11] 2.08 µM | [12] 2.95 µM | [54] 1.43 µM | [14] 1.51 µM | [55] 4.08 µM | [56] 2.2 µM | [17] 5.09 µM | [21] 1.31 µM | [57] 1.19 µM | [58] 12.1 µM | [24] 1.99 µM | [27] 5.85 µM | [30] 4.05 µM | [31] 1.79 µM | [59] 1.32 µM | [32] 1.88 µM | [60] 3.74 µM | [61] 2.5 µM | [39] 3.37 µM | [62] 4.32 µM | [40] 1.52 µM | [64] 1.79 µM | [43] 6.18 µM | [44] 1.58 µM | [47] 2.02 µM | [49] 3.98 µM | [65] 2.04 µM
active: [1] 0.393 µM | [51] 0.331 µM | [7] 0.871 µM | [13] 0.638 µM | [15] 0.134 µM | [18] 0.962 µM | [19] 0.975 µM | [23] 0.853 µM | [25] 0.927 µM | [26] 0.397 µM | [28] 0.56 µM | [33] 0.403 µM | [34] 0.678 µM | [35] 0.984 µM | [36] 0.316 µM | [38] 0.0849 µM | [63] 0.714 µM | [41] 0.611 µM | [45] 0.488 µM | [46] 0.527 µM | [48] 0.49 µM

Nc1nc(Cl)cc(NCCC2(CO)CCC2)n1
> 100 µM: [2]
inactive: [50] > 100 µM | [1] > 100 µM | [3] > 100 µM | [51] > 100 µM | [52] > 100 µM | [4] > 100 µM | [53] > 100 µM | [5] > 100 µM | [6] > 100 µM | [7] > 100 µM | [8] 4.73 µM | [9] > 100 µM | [10] > 100 µM | [11] > 100 µM | [12] > 100 µM | [13] > 100 µM | [54] > 100 µM | [14] > 100 µM | [15] > 100 µM | [55] > 100 µM | [56] > 100 µM | [17] > 100 µM | [18] > 100 µM | [19] > 100 µM | [21] > 100 µM | [57] > 100 µM | [23] > 100 µM | [58] > 100 µM | [24] > 100 µM | [25] > 100 µM | [26] > 100 µM | [27] > 100 µM | [28] > 100 µM | [30] > 100 µM | [31] > 100 µM | [59] > 100 µM | [32] > 100 µM | [60] > 100 µM | [33] > 100 µM | [34] > 100 µM | [35] > 100 µM | [36] > 100 µM | [38] > 100 µM | [61] 45.4 µM | [39] > 100 µM | [62] 93.3 µM | [40] > 100 µM | [63] > 100 µM | [64] > 100 µM | [41] > 100 µM | [43] > 100 µM | [44] > 100 µM | [45] > 100 µM | [46] > 100 µM | [47] > 100 µM | [48] > 100 µM | [49] > 100 µM | [65] > 100 µM
